The values that follow come from article PMC10447463, “Data-mining unveils structure–property–activity correlation of viral infectivity enhancing self-assembling peptides” (Nature Communications, 2023).

Data set [1] deals with HIV-1 infection of TZM-bl cells. Briefly: HIV-1 infectivity enhancement assay, β-galactosidase luminescence. It counts as cell-based. Particulars: for Absolute Infectivity / RLU /s (Feb2021): unrounded values of the 1.3 µM column; for Log10 Inf. rel. to EF-C: log10 of HIV-1 infection of TZM-bl cells relative to EF-C, Fig S15 source data; for Log10 Infection Rel EF-C: HIV-1 infection of TZM-bl cells.

Data set [2] is classed as physicochemical. Also on record: key to Fibril / Fibril Formation / TEM 2cat / Fibril: 1 = fibrils present; 0 non-fibrillar structures. As to conditions: for TEM 2cat: fibril category by TEM.
The nature of data set [3]: Zeta-potential measurement. As to conditions: for Zeta-pot. / mV: zeta potential of peptide, Fig S15 source data. The data set is classed as physicochemical. The procedure, abridged: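 Peptides diluted from DMSO stock into PBS pH 7.4 to 1 mg/mL and aged 1 d at RT, then diluted into 1 mM aqueous KCl. Zeta potential derived from electrophoretic mobility via Smoluchowski; triplicates, averaged over two independent experiments.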

The conditions of data set [4]: ref sieste 2021 or Schilling2019; cited from earlier work. An excerpt:
Supplement 41467_2023_40663_MOESM7_ESM.zip/FigS17.csv, table | column: Conversion Rate / % ( from sieste 2021 or Schilling2019)

A short description of data set [5]: β-sheet content by ATR-FT-IR. It counts as physicochemical. As to conditions: Fig. S7 panel A; β-sheet content by ATR-FT-IR. The procedure, abridged: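 1 mg/mL PNF solutions lyophilized and powders measured by diamond ATR FT-IR (2 cm^-1 resolution, 64 scans); β-sheet content calculated per a prior method. For CR, PNF solution centrifuged through 3 kDa MWCO filter (16200 x g, 4 °C, 45 min); filtrate and unfiltered sample lyophilized, dissolved in DMSO, reacted with fluorescamine.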

The mark [6] stands for this setting: Feb2021, 1.3 µM value relative to virus only (0 µM).
Where [7] appears, read: Feb2021, log10 of infectivity relative to EF-C.
The mark [8] stands for this setting: Feb2021, n-fold infectivity relative to EF-C.
Where [9] appears, read: infectivity class (low / medium / high) of each library peptide, main list in c1-c6, same classes repeated in sub-lists of sequences containing the hydrophobicity/charge patterns P+,H0,P+,H0,P0,H0,P0, P+,H0,P0,H0,P0,H0,P0, P+,H0,P0,H0.
Where [10] appears, read: infectivity enhancement relative to EF-C (=1), Feb2021 run.
The mark [11] stands for this setting: infectivity n-fold relative to virus only, Feb2021 run.
Setting [12] is: log10 of infectivity relative to EF-C, Feb2021 run.
[13] abbreviates: infectivity class (low / medium / high) of the peptide in the sequence-pattern analysis, Fig. S22-A4, class limits not given.

Read-outs that look alike come from different tables or passages of the source.

For CEIEIQI [AR2/ TM142], the “n-fold to virus (Feb2021)” value in data set [1] (setting [6]) and in data set [1] (setting [11]) was 1.173 throughout. Also, the “Log10 of Rel to EFC (Feb2021)” value in data set [1] (setting [7]) and in data set [1] (setting [12]) was -1.554 in each case. Besides, the “Rel-to EFC (Feb-2021)” value in data set [1] (setting [8]) and in data set [1] (setting [10]) was 0.02791 throughout. For the same substance, the “Absolute Infectivity / RLU /s (Feb2021)” value in data set [1] (Feb2021) worked out at 633.3 RLU /s. In data set [1] (setting [9]), the infectivity result is recorded as “low”. In data set [1] (asymmetric std dev errors), the “Log10 Inf. rel. to EF-C” value was -1.554. The “TEM: 1= fibrils, 0= aggregates (micelle), 0.5 = aggregates and fibrils, -1 = nothing obersved, STD prep” value (from here on “TEM: 1= fibrils, 0= aggregates (micelle)”) in data set [2] is reported as 1. In data set [3], the “Zeta category ( +1 = if > 4 mV;-1 = if < -4 mV; 0 = -4mV to 4 mV)” value (shortened to “Zeta category”) is -1 (-1 = if < -4 mV). For the same substance, the “Zeta Pot. / mV” value is -26.1 mV in data set [3] (mean, Std Zeta in next column) and -26.1 mV in data set [3] (mean, Std in separate column). For the same substance, the “Zeta-pot. / mV” value in data set [3] is reported as -26.1 mV. Also, the “Conversion Rate / % ( from sieste 2021 or Schilling2019)” value (shortened to “Conversion Rate / %”) in data set [4] is reported as 59%.

For the substance CEIEIQINM [TM144], the “n-fold to virus (Feb2021)” value in data set [1] (setting [6]) and in data set [1] (setting [11]) was 2.736 in each case. The “Log10 of Rel to EFC (Feb2021)” value in data set [1] (setting [7]) and in data set [1] (setting [12]) was -1.186 each time. The “Rel-to EFC (Feb-2021)” value in data set [1] (setting [8]) and in data set [1] (setting [10]) was 0.06512 throughout. Further, the “Absolute Infectivity / RLU /s (Feb2021)” value in data set [1] (Feb2021) is given as 3593 RLU /s. Further, the infectivity entry in data set [1] (setting [13]) is on record as “low”. In data set [1] (asymmetric std dev errors), the “Log10 Inf. rel. to EF-C” value is on record as -1.186. Besides, the “TEM: 1= fibrils, 0= aggregates (micelle)” value in data set [2] is recorded as 1. In addition, the “Zeta category” value in data set [3] is listed as -1 (-1 = if < -4 mV). Moreover, the “Zeta Pot. / mV” value in data set [3] (mean, Std Zeta in next column) is -15.3 mV; in data set [3] (mean, Std in separate column), -15.3 mV. The “Zeta-pot. / mV” value in data set [3] is recorded as -15.3 mV. Further, the “Conversion Rate / %” value in data set [4] was 43%.

Take CKAKAQA [TM155]: the “n-fold to virus (Feb2021)” value in data set [1] (setting [6]) is recorded as 1.325; in data set [1] (Feb2021 run, infectivity n-fold relative to virus alone), 1.325. Besides, the “Log10 of Rel to EFC (Feb2021)” value in data set [1] (Feb2021, Log10 of infectivity relative to EF-C) is given as -1.501; in data set [1] (Feb2021 run, log10 of infectivity relative to EF-C), -1.501. Further, the “Rel-to EFC (Feb-2021)” value in data set [1] (Feb2021, n-fold enhancement relative to EF-C) stood at 0.03153; in data set [1] (setting [8]), 0.03153; in data set [1] (Feb2021 run, n-fold infectivity relative to EF-C) it was 0.03153. Moreover, the “Absolute Infectivity / RLU /s (Feb2021)” value in data set [1] (Feb2021) was 1740 RLU /s. The infectivity result in data set [1] (setting [9]) and in data set [1] (setting [13]) was “low” in each case. Moreover, the “Log10 Inf. rel. to EF-C” value in data set [1] (asymmetric std dev errors) is recorded as -1.501. For the same substance, in data set [2], the “TEM: 1= fibrils, 0= aggregates (micelle)” value worked out at 0.5. In addition, the “Zeta category” value in data set [3] and in data set [3] (category from zeta potential) was -1 (-1 = if < -4 mV) throughout. Moreover, the “Zeta Pot. / mV” value is on record as -8.01 mV in data set [3] (mean, Std Zeta in next column) and -8.01 mV in data set [3] (mean, Std in separate column). The “Zeta-pot. / mV” value in data set [3] was -8.01 mV. For the same substance, in data set [4], the “Conversion Rate / %” value was 44%.

Consider RGDKIKIQI, for which, in data set [1] (1.3 µM peptide, infection relative to EF-C (QCKIKQIINMWQ = 1)), the Rel-EFC was 0,02. Further, the “Log10 Infection Rel EFC” value in data set [1] (1.3 µM peptide, log10 of infection relative to EF-C) is -1,81. Further, the “Log Infectivity” value in data set [1] (Fig. S7 panel A (plotted against β-sheet content), Log10 infection relative to EF-C, TZM-bl cells, asymmetric std dev errors) is reported as -1.805. Further, the “Log10 Infection Rel EF-C” value is -1.81 in data set [1] (Log10 of infection rate relative to EF-C, Figure 3A source data); -1.805 in data set [1] (infection rate relative to EF-C, log10, data of Figure 2D); -1.805 in data set [1] (infection rate relative to EF-C, log10, source data of Figure 2C). Further, the “TEM 2cat” value in data set [2] (Fig S10 panel D) and in data set [2] (FigS12 panel A) was 1 in each case. Further, the Fibril in data set [2] (FigS12 panel B, TEM) stood at 1; in data set [2] (TEM, 1 = fibrils present, 0 = non-fibrillar), 1; in data set [2] (TEM, 1 = fibrils present, 0 = non-fibrillar structures) it was 1. The “Fibril / Fibril Formation” value in data set [2] (TEM, 1 mg/mL, uranyl acetate stain, qualitative) amounted to 1. Further, the Zeta-Pot. in data set [3] (zeta potential of peptide assemblies) is given as -0.899. The “Zeta-Potential / mV” value in data set [3] (zeta-potential of peptide, source data of Figure 2C) is given as 2.829 mV; in data set [3] (zeta-potential of the peptide assemblies, mean, Figure 3A source data) it was -0.9 mV. In addition, the “b -sheet / %” value in data set [5] is on record as 40.49%.
